# Measurements published in patent US20240050428A1 (Cullgen (Shanghai), Inc., priority 2020, published 2024).
# Read-outs that look alike come from different tables or passages of the source.
# What was measured:
# MV4;11 cells = test: Cell viability assay (CellTiter-Glo) in MV4;11 cells, alone or with gilteritinib; format: cell-based; conditions: Homo sapiens, MV4-11, 72 h, MV4;11 cells, CellTiter-Glo, read-out: MV4
# MOLM-13 cells = test: Cell viability assay (CellTiter-Glo) in MOLM-13 cells, alone or with gilteritinib; format: cell-based; conditions: Homo sapiens, MOLM-13, 72 h, MOLM-13 cells, CellTiter-Glo
# [1] = compound alone (without gilteritinib), three days, 11 IC50
# [2] = with gilteritinib 10 nM, three days, 11 IC50 gilteritinib
# [3] = compound alone (without gilteritinib), three days, read-out: MOLM-13 IC50
# [4] = with gilteritinib 20 nM, three days, read-out: MOLM-13 IC50 gilteritinib
# [5] = compound with gilteritinib 10 nM, three days, 11 IC50 gilteritinib
# [6] = compound with gilteritinib 20 nM, three days, read-out: MOLM-13 IC50 gilteritinib
SMILES,IC50 (MV4;11 cells; [1]),IC50 (MV4;11 cells; [2]),IC50 (MOLM-13 cells; [3]),IC50 (MOLM-13 cells; [4]),IC50 (MV4;11 cells; [5]),IC50 (MOLM-13 cells; [6]),"IC50 (MV4;11 cells; with 10 nM gilteritinib, 3 days, 11 IC50 gilteritinib)","IC50 (MV4;11 cells; without gilteritinib, 3 days, 11 IC50)","IC50 (MOLM-13 cells; with 20 nM gilteritinib, 3 days, read-out: MOLM-13 IC50 gilteritinib)","IC50 (MOLM-13 cells; without gilteritinib, 3 days, read-out: MOLM-13 IC50)"
"O=C1CCC(N2C(=O)c3ccc(NC[C@H]4C[C@@H](n5cc(-c6cnc7ccc(C8CCOCC8)cc7n6)cn5)C4)cc3C2=O)C(=O)N1 (stereo partly drawn) [GS-193, 2-(2,6-Dioxopiperidin-3-yl)-5-(((cis-3-(4-(7-(tetrahydro-2H-pyran-4-yl)quinoxalin-2-yl)-1H-pyrazol-1-yl)cyclobutyl)methyl)amino)isoindoline-1,3-dione]",> 1 µM,0.1 to 1 µM,0.1 to 1 µM,0.1 to 1 µM,–,–,–,–,–,–
"O=C1CCC(N2C(=O)c3ccc(NCCCCCC(=O)c4ccc(-n5cccn5)cc4)cc3C2=O)C(=O)N1 (centres unmarked) [GS-061, 5-((6-(4-(1H-Pyrazol-1-yl)phenyl)-6-oxohexyl)amino)-2-(2,6-dioxopiperidin-3-yl)isoindoline-1,3-dione]",> 1 µM,0.1 to 1 µM,> 1 µM,0.1 to 1 µM,–,–,–,–,–,–
"Cc1nn(CCCCCCNc2ccc3c(c2)C(=O)N(C2CCC(=O)NC2=O)C3=O)c(C)c1-c1ncccn1 (centres unmarked) [GS-150, 5-((6-(3,5-Dimethyl-4-(pyrimidin-2-yl)-1H-pyrazol-1-yl)hexyl)amino)-2-(2,6-dioxopiperidin-3-yl)isoindoline-1,3-dione]",0.1 to 1 µM,0.01 to 0.1 µM,0.1 to 1 µM,< 0.01 µM,–,–,–,–,–,–
"O=C(CC1CC1n1cc(-c2cnc3ccccc3n2)cn1)NCc1ccc2c(c1)CN(C1CCC(=O)NC1=O)C2=O (centres unmarked) [GS-109, N-((2-(2,6-Dioxopiperidin-3-yl)-1-oxoisoindolin-5-yl)methyl)-2-(2-(4-(quinoxalin-2-yl)-1H-pyrazol-1-yl)cyclopropyl)acetamide]",0.1 to 1 µM,0.1 to 1 µM,> 1 µM,0.1 to 1 µM,–,–,–,–,–,–
"O=C1CCC(N2C(=O)c3ccc(NCCC[C@H]4C[C@@H](n5cc(-c6cnc7ccc(NC8CCNCC8)cc7n6)cn5)C4)cc3C2=O)C(=O)N1 (stereo partly drawn) [GS-214, 2-(2,6-Dioxopiperidin-3-yl)-5-((3-(cis-3-(4-(7-(piperidin-4-ylamino)quinoxalin-2-yl)-1H-pyrazol-1-yl)cyclobutyl)propyl)amino)isoindoline-1,3-dione]",0.1 to 1 µM,0.01 to 0.1 µM,> 1 µM,0.01 to 0.1 µM,–,–,–,–,–,–
"O=C1CCC(N2C(=O)c3ccc(NCCC[C@H]4C[C@@H](n5cc(-c6cnc7ccc(N8CCOCC8)cc7n6)cn5)C4)cc3C2=O)C(=O)N1 (stereo partly drawn) [GS-207, 2-(2,6-Dioxopiperidin-3-yl)-5-((3-(cis-3-(4-(7-morpholinoquinoxalin-2-yl)-1H-pyrazol-1-yl)cyclobutyl)propyl)amino)isoindoline-1,3-dione]",0.1 to 1 µM,0.01 to 0.1 µM,0.1 to 1 µM,< 0.01 µM,–,–,–,–,–,–
"O=C1CCC(N2C(=O)c3ccc(NCCCCCC(=O)N4CCC(c5ccccn5)CC4)cc3C2=O)C(=O)N1 (centres unmarked) [GS-017, 2-(2,6-Dioxopiperidin-3-yl)-5-((6-oxo-6-(4-(pyridin-2-yl)piperidin-1-yl)hexyl)amino)isoindoline-1,3-dione]",–,–,–,–,–,–,0.002 µM,0.02 µM,0.002 µM,0.03 µM
"O=C1CCC(N2C(=O)c3ccc(NCCC[C@H]4C[C@H](n5cc(-c6cnc7ccc(C8CCNCC8)cc7n6)cn5)C4)cc3C2=O)C(=O)N1 (stereo partly drawn) [GS-199, 2-(2,6-Dioxopiperidin-3-yl)-5-((3-(trans-3-(4-(7-(piperidin-4-yl)quinoxalin-2-yl)-1H-pyrazol-1-yl)cyclobutyl)propyl)amino)isoindoline-1,3-dione]",0.01 to 0.1 µM,< 0.01 µM,0.1 to 1 µM,< 0.01 µM,–,–,–,–,–,–

# The remaining lines, values ahead:
IC50 (MV4;11 cells; [1]),IC50 (MV4;11 cells; [2]),IC50 (MOLM-13 cells; [3]),IC50 (MOLM-13 cells; [4]),IC50 (MV4;11 cells; [5]),IC50 (MOLM-13 cells; [6]),"IC50 (MV4;11 cells; with 10 nM gilteritinib, 3 days, 11 IC50 gilteritinib)","IC50 (MV4;11 cells; without gilteritinib, 3 days, 11 IC50)","IC50 (MOLM-13 cells; with 20 nM gilteritinib, 3 days, read-out: MOLM-13 IC50 gilteritinib)","IC50 (MOLM-13 cells; without gilteritinib, 3 days, read-out: MOLM-13 IC50)",SMILES
> 1 µM,> 1 µM,> 1 µM,0.1 to 1 µM,–,–,–,–,–,–,"O=C1CCC(N2C(=O)c3ccc(NCCCc4cccc(-n5cc(-c6cnc7ccccc7n6)cn5)c4)cc3C2=O)C(=O)N1 (centres unmarked) [GS-365, 2-(2,6-Ddioxopiperidin-3-yl)-5-((3-(3-(4-(quinoxalin-2-yl)-1H-pyrazol-1-yl)phenyl)propyl)amino)isoindoline-1,3-dione]"
> 1 µM,–,> 1 µM,–,> 1 µM,> 1 µM,–,–,–,–,"CN1CCC(Nc2cccnc2-c2cn([C@H]3C[C@H](CNc4ccc5c(c4)C(=O)N(C4CCC(=O)NC4=O)C5=O)C3)nc2C2CC2)CC1 (stereo partly drawn) [GS-617, 5-(((trans-3-(3-Cyclopropyl-4-(3-((1-methylpiperidin-4-yl)amino)pyridin-2-yl)-1H-pyrazol-1-yl)cyclobutyl)methyl)amino)-2-(2,6-dioxopiperidin-3-yl)isoindoline-1,3-dione]"
0.01 to 0.1 µM,–,0.1 to 1 µM,–,< 0.01 µM,0.01 to 0.1 µM,–,–,–,–,"Cc1ccnc(-c2cnn([C@H]3C[C@H](CCCNc4ccc5c(c4)C(=O)N(C4CCC(=O)NC4=O)C5=O)C3)c2)c1 (stereo partly drawn) [GS-603, 2-(2,6-Dioxopiperidin-3-yl)-5-((3-(trans-3-(4-(4-methylpyridin-2-yl)-1H-pyrazol-1-yl)cyclobutyl)propyl)amino)isoindoline-1,3-dione]"
> 1 µM,> 1 µM,> 1 µM,0.01 to 0.1 µM,–,–,–,–,–,–,O=C1CCC(N2C(=O)c3ccc(NCCCCCCn4cc(-c5cnc6cccc(C7CCOCC7)c6n5)cn4)cc3C2=O)C(=O)N1 (centres unmarked) [GS-382]
> 1 µM,–,> 1 µM,–,> 1 µM,> 1 µM,–,–,–,–,"CN(C)c1ccnc(-c2cn([C@H]3C[C@H](CNc4ccc5c(c4)C(=O)N(C4CCC(=O)NC4=O)C5=O)C3)nc2C2CC2)c1 (stereo partly drawn) [GS-606, 5-(((trans-3-(3-Cyclopropyl-4-(4-(dimethylamino)pyridin-2-yl)-1H-pyrazol-1-yl)cyclobutyl)methyl)amino)-2-(2,6-dioxopiperidin-3-yl)isoindoline-1,3-dione]"
0.01 to 0.1 µM,–,0.1 to 1 µM,–,< 0.01 µM,< 0.01 µM,–,–,–,–,"O=C1CCC(N2C(=O)c3ccc(NCCCCCCn4cc(-c5cnc6ccc(N7CCNCC7)cc6n5)cn4)cc3C2=O)C(=O)N1 (centres unmarked) [GS-532, 2-(2,6-Dioxopiperidin-3-yl)-5-((6-(4-(7-(piperazin-1-yl)quinoxalin-2-yl)-1H-pyrazol-1-yl)hexyl)amino)isoindoline-1,3-dione]"
> 1 µM,–,> 1 µM,–,> 1 µM,> 1 µM,–,–,–,–,"O=C1CCC(N2C(=O)c3ccc(CCN4CC(n5cc(-c6cnc7ccccc7n6)c(C6CC6)n5)C4)cc3C2=O)C(=O)N1 (centres unmarked) [GS-469, 5-(2-(3-(3-cyclopropyl-4-(quinoxalin-2-yl)-1H-pyrazol-1-yl)azetidin-1-yl)ethyl)-2-(2,6-dioxopiperidin-3-yl)isoindoline-1,3-dione]"
0.1 to 1 µM,> 1 µM,> 1 µM,> 1 µM,–,–,–,–,–,–,"O=C1CCC(N2C(=O)c3ccc(NCCC[C@H]4C[C@H](n5cc(-c6cccc(N7CCC(O)CC7)n6)cn5)C4)cc3C2=O)C(=O)N1 (stereo partly drawn) [GS-252, 2-(2,6-Dioxopiperidin-3-yl)-5-((3-(trans-3-(4-(6-(4-hydroxypiperidin-1-yl)pyridin-2-yl)-1H-pyrazol-1-yl)cyclobutyl)propyl)amino)isoindoline-1,3-dione]"
> 1 µM,–,> 1 µM,–,> 1 µM,> 1 µM,–,–,–,–,"O=C1CCC(N2C(=O)c3ccc(NC[C@H]4C[C@H](n5nc(C6CC6)c6ncccc65)C4)cc3C2=O)C(=O)N1 (stereo partly drawn) [GS-475, 5-(((trans-3-(3-cyclopropyl-1H-pyrazolo[4,3-b]pyridin-1-yl)cyclobutyl)methyl)amino)-2-(2,6-dioxopiperidin-3-yl)isoindoline-1,3-dione]"
